Measurements published in patent US20260355196A1, “INHIBITORS AND DEGRADERS OF PIP4K PROTEIN” (Larkspur Biosciences, Inc., priority 2023, published 2026).

Target: T1, PIP4K2C (Homo sapiens, UniProt Q8TBX8)
T1 sequence (Q8TBX8 1-421): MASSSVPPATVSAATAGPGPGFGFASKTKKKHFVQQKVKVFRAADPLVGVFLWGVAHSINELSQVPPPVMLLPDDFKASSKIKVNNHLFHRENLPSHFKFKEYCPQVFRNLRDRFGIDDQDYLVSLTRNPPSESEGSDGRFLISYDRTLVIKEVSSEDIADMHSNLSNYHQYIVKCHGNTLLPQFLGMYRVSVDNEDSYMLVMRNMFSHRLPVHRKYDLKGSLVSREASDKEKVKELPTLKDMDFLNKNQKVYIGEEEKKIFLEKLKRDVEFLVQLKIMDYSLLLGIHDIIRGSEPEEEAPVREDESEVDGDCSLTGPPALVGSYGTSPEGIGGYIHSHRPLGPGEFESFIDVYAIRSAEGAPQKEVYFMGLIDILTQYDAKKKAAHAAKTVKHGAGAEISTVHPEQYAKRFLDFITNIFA
Assay: HiBiT PIP4K2C degradation assay in MOLT-4 cells (endogenous PIP4K2C C-terminally tagged with HiBiT)
Format: cell-based
Parameters: untagged in primary human PBMCs and monocyte-derived dendritic cells
Conditions: 6 hours of incubation time, rather than 24 hours; MOLT-4, top concentration 10 micromolar; read-out: HiBIT-degradation MOLT4 PIP4k2C DC50 (6 hours, marked *)
Outline: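 Luminescent HiBiT lytic readout of residual PIP4K2C-HiBiT (CRISPR knock-in, MOLT-4, phenol red-free RPMI-1640 + 10% FBS). Cells exposed 6 or 24 h at 37 C to compound, top 10 micromolar, 3-fold, 10 points, duplicate. Hill fit (Levenberg-Marquardt) gives DC50.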

DC50, < 500 nM:
O=C1CCC(Nc2ccc(N3CCC(N4CCC(C(=O)N[C@H]5CC[C@H](Nc6ncc(F)c(-c7cccc(N8CCCCC8)c7)n6)CC5)CC4)CC3)c(F)c2)C(=O)N1 (stereo partly drawn) [Compound 516, trans-1′-(4-((2,6-dioxopiperidin-3-yl)amino)-2-fluorophenyl)-N-(4-((5-fluoro-4-(3-(piperidin-1-yl)phenyl)pyrimidin-2-yl)amino)cyclohexyl)-[1,4′-bipiperidine]-4-carboxamide]
O=C1CC[C@H](Nc2ccc(N3CCN([C@H]4CC[C@H](C(=O)N[C@H]5CC[C@H](Nc6ncc(F)c(-c7cccc(-c8ccc[nH]c8=O)c7)n6)CC5)CC4)CC3)c(F)c2)C(=O)N1 [Compound 517, trans-4-(4-(4-(((S)-2,6-dioxopiperidin-3-yl)amino)-2-fluorophenyl)piperazin-1-yl)-N-((trans)-4-((5-fluoro-4-(3-(2-oxo-1,2-dihydropyridin-3-yl)phenyl)pyrimidin-2-yl)amino)cyclohexyl)cyclohexane-1-carboxamide]
O=C1CCC(Nc2ccc(C3CCN(CC4(O)CCN(C(=O)[C@H]5CC[C@H](Nc6ncc(F)c(-c7cccc(C8CC8)c7)n6)CC5)CC4)CC3)c(F)c2)C(=O)N1 (stereo partly drawn) [Compound 518, trans-3-((4-(1-((1-(4-((4-(3-cyclopropylphenyl)-5-fluoropyrimidin-2-yl)amino)cyclohexane-1-carbonyl)-4-hydroxypiperidin-4-yl)methyl)piperidin-4-yl)-3-fluorophenyl)amino)piperidine-2,6-dione]
O=C1CC[C@@H](Nc2ccc(C3CCN([C@H]4CC[C@H](NC(=O)[C@H]5CC[C@H](Nc6ncc(F)c(-c7cccc(N8CCCOC8=O)n7)n6)CC5)CC4)CC3)c(F)c2)C(=O)N1 [Compound 519, (trans)-N-((trans)-4-(4-(4-((2,6-dioxopiperidin-3-yl)amino)-2-fluorophenyl)piperidin-1-yl)cyclohexyl)-4-((5-fluoro-4-(6-(2-oxo-1,3-oxazinan-3-yl)pyridin-2-yl)pyrimidin-2-yl)amino)cyclohexane-1-carboxamide]
O=C1CCC(Nc2ccc(C3CCN([C@H]4CC[C@H](NC(=O)[C@H]5CC[C@H](Nc6ncc(F)c(-c7cccc(-n8ccccc8=O)n7)n6)CC5)CC4)CC3)c(F)c2)C(=O)N1 (stereo partly drawn) [Compound 520, trans-N-(trans-4-(4-(4-((2,6-dioxopiperidin-3-yl)amino)-2-fluorophenyl)piperidin-1-yl)cyclohexyl)-4-((5-fluoro-4-(2-oxo-2H-[1,2′-bipyridin]-6′-yl)pyrimidin-2-yl)amino)cyclohexane-1-carboxamide]
O=C1CCC(Nc2ccc(N3CCC(N4CCC(NC(=O)[C@H]5CC[C@H](Nc6ncc(F)c(-c7cccc(N8CCCCC8=O)c7)n6)CC5)CC4)CC3)c(F)c2)C(=O)N1 (stereo partly drawn) [Compound 521, trans-N-(1′-(4-((2,6-dioxopiperidin-3-yl)amino)-2-fluorophenyl)-[1,4′-bipiperidin]-4-yl)-4-((5-fluoro-4-(3-(2-oxopiperidin-1-yl)phenyl)pyrimidin-2-yl)amino)cyclohexane-1-carboxamide]
O=C1CCC(Nc2ccc(N3CCC(N4CCC(NC(=O)[C@H]5CC[C@H](Nc6ncc(F)c(-c7cccc(N8CCCOC8=O)c7)n6)CC5)CC4)CC3)c(F)c2)C(=O)N1 (stereo partly drawn) [Compound 522, trans-N-(1′-(4-((2,6-dioxopiperidin-3-yl)amino)-2-fluorophenyl)-[1,4′-bipiperidin]-4-yl)-4-((5-fluoro-4-(3-(2-oxo-1,3-oxazinan-3-yl)phenyl)pyrimidin-2-yl)amino)cyclohexane-1-carboxamide]
